Entries after “also recorded” stand apart in the source; their conditions may differ.
What was measured:
four tumor cell lines = tested on: four tumor cell lines; set-up: method as in PMID 32843690; details: non-selective, ref [41]; cited from earlier work
rat TRPM8 [1] = biological target: T1, rat TRPM8 (Rattus norvegicus, UniProt Q8R455); set-up: method as in PMID 32843690; details: ref [41]; cited from earlier work
T1 construct: expressed in transfected cells; host or cells: HEK293 (human embryonic kidney), stably transfected
T1 sequence (Q8R455 whole entry): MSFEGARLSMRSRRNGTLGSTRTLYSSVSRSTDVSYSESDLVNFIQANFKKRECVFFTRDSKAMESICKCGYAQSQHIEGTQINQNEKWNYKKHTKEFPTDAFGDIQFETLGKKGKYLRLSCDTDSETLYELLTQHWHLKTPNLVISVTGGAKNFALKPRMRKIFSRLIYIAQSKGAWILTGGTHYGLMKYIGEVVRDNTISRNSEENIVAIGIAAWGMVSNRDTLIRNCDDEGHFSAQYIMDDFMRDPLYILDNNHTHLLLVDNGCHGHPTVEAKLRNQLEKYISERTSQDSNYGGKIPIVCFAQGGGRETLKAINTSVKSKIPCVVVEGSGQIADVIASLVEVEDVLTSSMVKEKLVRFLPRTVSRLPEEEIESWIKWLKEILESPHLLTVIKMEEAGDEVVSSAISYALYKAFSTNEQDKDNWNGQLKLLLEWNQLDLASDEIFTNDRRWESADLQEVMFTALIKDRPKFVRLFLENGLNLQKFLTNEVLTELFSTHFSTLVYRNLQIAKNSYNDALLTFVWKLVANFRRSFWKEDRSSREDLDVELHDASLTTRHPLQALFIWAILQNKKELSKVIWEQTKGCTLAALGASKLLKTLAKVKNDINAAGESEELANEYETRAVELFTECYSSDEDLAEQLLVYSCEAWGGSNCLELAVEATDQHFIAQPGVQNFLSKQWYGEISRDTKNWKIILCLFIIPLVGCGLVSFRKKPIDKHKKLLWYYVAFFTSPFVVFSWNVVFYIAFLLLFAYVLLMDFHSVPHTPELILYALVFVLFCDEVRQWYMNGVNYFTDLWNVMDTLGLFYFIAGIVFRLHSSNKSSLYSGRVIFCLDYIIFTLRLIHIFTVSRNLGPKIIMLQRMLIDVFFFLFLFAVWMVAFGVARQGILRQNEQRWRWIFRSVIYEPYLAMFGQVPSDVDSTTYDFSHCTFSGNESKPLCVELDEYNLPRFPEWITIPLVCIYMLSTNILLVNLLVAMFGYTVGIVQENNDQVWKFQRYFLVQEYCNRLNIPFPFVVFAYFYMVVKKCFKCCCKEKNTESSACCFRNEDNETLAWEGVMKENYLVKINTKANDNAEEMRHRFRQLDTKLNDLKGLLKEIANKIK

[2] = tested on: oxaliplatin-induced allodynia; set-up: method as in PMID 32843690; details: mice; from 15 to up to 60 min; ref [41]; cited from earlier work
hTRPA1 = biological target: T2, hTRPA1 (Homo sapiens, UniProt O75762); assay: Ca2+ influx assay, TRPA1 selectivity; type: cell-based; details: compound 50 μM; read-out: % TRPA1 Blockade at 50 μM
T2 construct: expressed in transfected cells
T2 sequence (O75762 whole entry): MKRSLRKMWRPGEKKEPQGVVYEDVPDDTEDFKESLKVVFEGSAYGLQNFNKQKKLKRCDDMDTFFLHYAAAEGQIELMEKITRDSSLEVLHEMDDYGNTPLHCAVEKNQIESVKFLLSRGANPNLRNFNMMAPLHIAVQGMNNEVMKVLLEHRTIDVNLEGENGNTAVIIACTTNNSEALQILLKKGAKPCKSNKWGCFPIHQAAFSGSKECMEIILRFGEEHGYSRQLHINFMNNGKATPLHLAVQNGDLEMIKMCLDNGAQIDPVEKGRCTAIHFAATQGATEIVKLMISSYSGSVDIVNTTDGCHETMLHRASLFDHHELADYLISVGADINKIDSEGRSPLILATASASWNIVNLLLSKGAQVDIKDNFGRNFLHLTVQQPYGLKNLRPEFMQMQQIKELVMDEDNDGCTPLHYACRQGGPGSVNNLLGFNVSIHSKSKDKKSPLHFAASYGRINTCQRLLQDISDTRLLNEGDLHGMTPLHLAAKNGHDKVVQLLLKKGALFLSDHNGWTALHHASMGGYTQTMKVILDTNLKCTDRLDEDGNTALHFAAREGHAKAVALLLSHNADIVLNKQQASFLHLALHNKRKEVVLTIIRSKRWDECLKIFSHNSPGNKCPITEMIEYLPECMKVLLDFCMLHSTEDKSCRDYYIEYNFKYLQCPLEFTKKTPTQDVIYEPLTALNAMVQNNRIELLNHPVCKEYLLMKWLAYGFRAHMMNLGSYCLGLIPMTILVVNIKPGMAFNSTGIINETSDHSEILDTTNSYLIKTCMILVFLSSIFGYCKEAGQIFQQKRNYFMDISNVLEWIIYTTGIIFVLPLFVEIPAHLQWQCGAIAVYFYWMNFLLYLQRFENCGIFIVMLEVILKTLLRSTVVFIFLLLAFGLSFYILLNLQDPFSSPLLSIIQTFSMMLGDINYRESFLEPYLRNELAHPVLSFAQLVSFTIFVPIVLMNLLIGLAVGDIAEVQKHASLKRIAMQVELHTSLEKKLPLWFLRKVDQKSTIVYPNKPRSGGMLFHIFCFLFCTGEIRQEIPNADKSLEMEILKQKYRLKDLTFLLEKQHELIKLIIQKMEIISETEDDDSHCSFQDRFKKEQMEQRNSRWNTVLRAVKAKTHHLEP
Excerpt: (§1) Because some molecular cross-recognition may occur within thermoTRP members, we evaluated the effect of compounds 14 and 16 on recombinantly expressed hTRPV1 and hTRPA1 channels. Data shown in Table 2 indicate that these β–lactam derivatives marginally cross-reacted with these channels, thus substantiating that they are potent and selective inhibitors of TRPM8.

rat TRPM8 [3] = biological target: T1, rat TRPM8; assay: Ca2+ intracellular influx assay (calcium microfluorimetry), menthol-induced; type: cell-based; details: 100 μM menthol; for IC50 / % Blockade 5 μM / % Blockade 50 μM: HEK-rTRPM8; for % Blockade 5 μM: compound 5 μM; for % Blockade 50 μM: compound 50 μM; for Menthol-induced fluorescent signal: compound 10 μM, representative graph Figure A1
Description: The four obtained diastereomeric compounds were evaluated for their ability to inhibit menthol-induced Ca^2+ intracellular influx into the cytosol on HEK293 cells heterologously expressing rat TRPM8. The well-known TRPM8 antagonist N-(3-aminopropyl)-2-[(3-methylphenyl)methoxy]-N-(2-thienylmethyl)-benzamide (AMTB) was used as control. Some representative graphs for compound 14 and 16 at 10 μM on HEK-rTRPM8 cells are included in Figure A1.
Compounds were evaluated for their activity against rTRPM8 using microfluorometry based calcium flux assays with Fluo-4 NW Ca^2+ dye and fluorescence were measured at excitation wavelength of 485 nm and emission wavelength of 520 nm using POLASTAR plate reader (BMG Labtech). Briefly human embryonic kidney cell line (HEK) stably transfected with rTRPM8 were seeded in 96-well plates at a cell density of 30,000 cells and 2 days before the medium was replaced with 100 μL of the dye loading solution Fluo-4 NW supplemented with probenecid 2.5 mM. After 1 h incubation at 37 °C, plates were transferred to the plate reader and the baseline fluorescence was recorded for 3 cycles before the addition of vehicle, compound at different concentrations and the antagonist, 10 μM AMTB for TRPM8. Fluorescence intensity was recorded during 7 more cycles and the agonist was added, 100 μM menthol. Fluorescence intensity was recorded during 10 more cycles.
Data analysis: the fluorescence values obtained for each compound concentration were normalized to that prompted by the control agonist (100 μM menthol). Decrease in menthol signal was expressed as percentage of inhibition (%). All data are expressed as the mean ± standard deviation (SD). Each condition was assessed in triplicate (n = 3) in 3 independent experiments (N = 3). The Z-factor was calculated in each assay using the following equation: […]. In all the experiments, the Z-factor was ≥ 0.5. To calculate IC50, normalized responses (%) versus log (μM) were adjusted to a non-linear fit with variable slope, a four-parameter dose–response curve following curve Y = 100/(1 + 10^((Log IC50-X) × HillSlope)) where […].

hTRPV1 = biological target: T3, hTRPV1 (Homo sapiens, UniProt Q8NER1); assay: Ca2+ influx assay, TRPV1 selectivity; type: cell-based; details: compound 50 μM; read-out: % TRPV1 Blockade at 50 μM
T3 construct: expressed in transfected cells
T3 sequence (Q8NER1 whole entry): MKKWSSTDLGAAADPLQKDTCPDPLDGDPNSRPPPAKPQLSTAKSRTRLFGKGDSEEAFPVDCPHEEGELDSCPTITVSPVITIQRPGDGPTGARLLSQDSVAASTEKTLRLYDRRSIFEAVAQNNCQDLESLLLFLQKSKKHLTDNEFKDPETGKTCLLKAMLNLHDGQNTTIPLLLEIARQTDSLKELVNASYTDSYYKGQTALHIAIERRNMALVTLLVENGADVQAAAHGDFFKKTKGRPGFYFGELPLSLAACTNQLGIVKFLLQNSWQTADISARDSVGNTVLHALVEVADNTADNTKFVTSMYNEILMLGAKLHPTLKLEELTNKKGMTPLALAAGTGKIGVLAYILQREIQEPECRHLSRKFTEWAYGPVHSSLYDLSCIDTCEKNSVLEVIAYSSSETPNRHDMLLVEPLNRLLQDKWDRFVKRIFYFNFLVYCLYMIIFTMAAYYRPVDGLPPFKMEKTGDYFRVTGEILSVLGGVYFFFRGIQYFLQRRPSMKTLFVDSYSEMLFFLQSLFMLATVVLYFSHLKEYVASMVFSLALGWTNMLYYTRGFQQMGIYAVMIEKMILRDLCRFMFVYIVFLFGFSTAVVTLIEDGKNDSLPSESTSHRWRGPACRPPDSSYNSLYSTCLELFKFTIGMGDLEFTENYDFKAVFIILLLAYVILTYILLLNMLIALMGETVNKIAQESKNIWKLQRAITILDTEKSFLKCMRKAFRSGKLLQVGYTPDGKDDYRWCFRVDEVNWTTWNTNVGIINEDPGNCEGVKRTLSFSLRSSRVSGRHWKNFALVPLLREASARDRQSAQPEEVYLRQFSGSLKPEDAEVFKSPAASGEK
Excerpt: as §1

rat DRG sensory neurons = assay: Current-clamp resting membrane potential of DRG sensory neurons; type: cell-based; details: compound 10 μM, t-test ns
Description: Next, we investigated the effect of the membrane of rat DRG sensory neurons. […] Sensory neurons were functional as evidenced by action potentials fired exposed to 100 μM menthol (Figure 3A, top trace).
Current-Clamp recordings from rat DRGs were carried out 24–48 h after seeding on 12-mm Ø glass coverslips treated with poly-L-lysine solution and Laminin (Sigma Aldrich). The intracellular pipette solution contained (in mM): 4 NaCl, 126 K gluconate, 0.02 CaCl2, 1 MgSO4, 5 HEPES, 15 glucose, 3 ATP, 0.1 GTP and 5 EGTA, pH 7.2 with KOH. The extracellular solution contained (in mM): 140 NaCl, 4 KCl, 2 CaCl2, 2 MgCl2, 10 HEPES, 5 glucose and 20 mannitol, pH 7.4 with NaOH. The membrane potential was measured in the absence and the presence of compounds 14 and 16 at 10 μM in a time interval of 1 min.
(§2) Data were sampled at 10 kHz (EPC10 amplifier with PatchMaster 2.53 software, HEKA Electronics, Lambrecht, Germany) and low-pass filtered at 3 kHz for analysis (PatchMaster 2.53 and GraphPad Prism 5, Graphpad Software, USA). The series resistance was <10 MΩ and to minimize voltage errors was compensated to 60–80%. All measurements were performed at 24–25 °C. Cell capacitance was measured and used to estimate the current density (J, pA/pF).

rat DRG neurons = assay: Microelectrode array, KCl-evoked action potentials in DRG neurons; type: cell-based; details: compound 10 μM; 40 mM KCl
Excerpt: To further interrogate β–lactam derivatives’ action on the excitability of DRG neurons we next used microelectrode arrays (MEA). This technology records the electrogenic activity of neural populations that are located near to an electrode, but it cannot differentiate the number of neurons or other cells contributing to it. We used MEA chips with 60 electrodes and monitored the electrical activity at each electrode to measure if the potent inhibitory effect of β–lactam derivatives act on voltage-gated Na^+ and K^+ channels present in neurons and responsible for action potential propagation. Neurons isolated from neonatal rat dorsal root ganglions (DRG) were cultured on MEA chambers. The experimental paradigm consisted in applying a first 15-s pulse (P1) of 40 mM KCl, to evoke action potentials. […]
Data analysis: Data were analyzed using an MC_RACK spike sorter with a sample rate of 25 kHz and a Butterworth high-pass 2nd order filter applied with 200 Hz cutoff. […] Spiking activity was measured in a temporal interval of 30 s, starting right after instillation of the activating stimuli. […] The recorded signals were then processed to extract mean spike frequency for each pulse (P1–P2). Then, the ratio P2/P1 of mean spike frequency was calculated and normalized to vehicle for comparing the different conditions used.

rat TRPM8 [4] = biological target: T1, rat TRPM8; assay: Whole-cell patch-clamp in HEK293 cells expressing rat TRPM8; type: cell-based; details: 100 μM menthol; for % Blockade at 10 μM: compound 10 μM, whole cell; for IC50: holding potential −60 mV
Description: In the electrophysiology assay, both compounds at 10 μM concentration were able to block TRPM8-mediated responses induced by menthol (Figure 2 and Figure A2, Table 3). […] After 10 μM of 14 was applied (Figure 2A, red), an important decrease on the menthol-induced TRPM8 activity at depolarizing voltages was observed. A similar behavior was detected after application of diastereomeric β–lactam 16 (Figure 2B). The dose–response curves for both compounds were obtained at a holding potential of −60 mV (Figure 2). The measured IC50 values were 0.9 ± 1.0 μM for 14 (Figure 2C) and 0.05 ± 1.3 μM for 16 (Figure 2D).
Whole-cell patch-clamp recordings from HEK-rTRPM8 cells were carried out 2 days after seeding on 12-mm Ø glass coverslips treated with poly-L-lysine solution (Sigma Aldrich, Spain); the intracellular pipette solution contained (in mM) 150 NaCl, 5 EGTA, 3 MgCl2 and 10 HEPES, adjusted to pH 7.2 with NaOH, and the extracellular solution contained (in mM) 150 NaCl, 6 CsCl, 1.5 CaCl2, 1 MgCl2, 10 D-glucose and 10 HEPES, adjusted to pH 7.4 with NaOH. The TRPM8 activity was measured by the application of two pulses of 100 μM menthol in a time interval of 2 min and a 30-s perfusion of the different compound concentrations before the second menthol pulse.
as §2
Data analysis: Results are expressed as the percentage of remaining activation of the TRPM8 channel. This is calculated by normalizing the ratio (p2/p1) of testing conditions to the ratio (p2/p1) of the control condition. Analysis of the data was performed by GraphPad 6.0, the Ordinary One-Way ANOVA analysis followed by the post hoc Bonferroni test stablished multiple comparisons and the ROUT method (Q = 10%) identified data outliers. A non-linear regression curve and IC50 were obtained by the representation of log (inhibitor) vs. response. All data are expressed as the mean ± standard error of the mean (SEM) (n = 5–8).

TRPM8 = tested on: TRPM8; set-up: method as in PMID 25893043, PMID 30148953; details: healthy volunteers and migraneous patients, respectively; ref [35],[36]; cited from earlier work

Structure (SMILES): C[C@@H]1C(=O)N(C[C@H](Cc2ccccc2)NC(=O)OCc2ccccc2)[C@]1(Cc1ccccc1)C(=O)OCc1ccccc1 [Compound 1]
- Antitumor activity (four tumor cell lines): micromolar potency in four tumor cell lines
- Block of channel activation by menthol (Ca2+ entry assay) (rat TRPM8 [1]): micromolar values
- Oxaliplatin-induced allodynia [2]: significantly reduces the oxaliplatin-induced allodynia

Structure (SMILES): C[C@@H]1C(=O)N(C[C@H](Cc2ccccc2)N(Cc2ccccc2)Cc2ccccc2)[C@]1(Cc1ccccc1)C(=O)OCc1ccccc1 [Compound 13, 4S-Benzyl-1-[(2′S-dibenzylamino-3′-phenyl-)prop-1′-yl]-4-benzyloxicarbonyl-3S-methyl-2-oxoazetidine]
- inhibition at 50 µM (hTRPA1): 3.7 ± 4.1%
- IC50 (rat TRPM8 [3]): 3100 ± 1100 nM
- % Blockade 5 μM (rat TRPM8 [3]): 57.7 ± 7.2%
- % Blockade 50 μM (rat TRPM8 [3]): 86.1 ± 5.0%
- inhibition at 50 µM (hTRPV1): 7.9 ± 3.2%

Structure (SMILES): C[C@@H]1C(=O)N(C[C@@H](Cc2ccccc2)N(Cc2ccccc2)Cc2ccccc2)[C@]1(Cc1ccccc1)C(=O)OCc1ccccc1 [Compound 14, 4S-Benzyl-1-[(2′R-dibenzylamino-3′-phenyl)prop-1′-yl]-4-benzyloxicarbonyl-3S-methyl-2-oxoazetidine]
- Effect on resting membrane potential (rat DRG sensory neurons): do not affect the membrane resting potential
- Effect on potassium-evoked action potentials (electrogenicity) (rat DRG neurons): do not alter potassium-evoked action potentials; also recorded: did not affected the electrogenicity
- inhibition at 50 µM (hTRPA1): 2.4 ± 1.4%
- % Blockade 5 μM (rat TRPM8 [3]): 78.9 ± 1.7%
- Menthol-induced fluorescent signal (rat TRPM8 [3]): completely blocked
- % Blockade 50 μM (rat TRPM8 [3]): 87.7 ± 3.1%
- % Blockade at 10 μM (rat TRPM8 [4]): 77.2 ± 2.7%
- IC50 (rat TRPM8 [4]): 900 ± 1000 nM
- inhibition at 50 µM (hTRPV1): 2.8 ± 4.1%

Structure (SMILES): C[C@H]1C(=O)N(C[C@H](Cc2ccccc2)N(Cc2ccccc2)Cc2ccccc2)[C@@]1(Cc1ccccc1)C(=O)OCc1ccccc1 [Compound 15, 4R-Benzyl-1-[(2′S-dibenzylamino-3′-phenyl)prop-1′-yl]-4-benzyloxicarbonyl-3R-methyl-2-oxoazetidine]
- inhibition at 50 µM (hTRPA1): 2.6 ± 1.9%
- IC50 (rat TRPM8 [3]): 700 ± 1100 nM
- % Blockade 5 μM (rat TRPM8 [3]): 71.1 ± 4.3%
- % Blockade 50 μM (rat TRPM8 [3]): 90.3 ± 2.8%
- inhibition at 50 µM (hTRPV1): 5.3 ± 3.4%

Structure (SMILES): C[C@H]1C(=O)N(C[C@@H](Cc2ccccc2)N(Cc2ccccc2)Cc2ccccc2)[C@@]1(Cc1ccccc1)C(=O)OCc1ccccc1 [Compound 16, 4R-Benzyl-1-[(2′R-dibenzylamino-3′-phenyl-)prop-1′-yl]-4-benzyloxicarbonyl-3R-methyl-2-oxoazetidine]
- Effect on resting membrane potential (rat DRG sensory neurons): do not affect the membrane resting potential
- Effect on potassium-evoked action potentials (electrogenicity) (rat DRG neurons): do not alter potassium-evoked action potentials; also recorded: did not affected the electrogenicity
- inhibition at 50 µM (hTRPA1): 0.5 ± 4.1%
- % Blockade 5 μM (rat TRPM8 [3]): 87.3 ± 8.1%
- Menthol-induced fluorescent signal (rat TRPM8 [3]): completely blocked
- % Blockade 50 μM (rat TRPM8 [3]): 98.5 ± 3.2%
- % Blockade at 10 μM (rat TRPM8 [4]): 79.3 ± 2.7%
- IC50 (rat TRPM8 [4]): 50 nM
- inhibition at 50 µM (hTRPV1): 4.2 ± 3.2%

Structure (SMILES): C[C@H](c1ccc(F)cc1)N(Cc1cccc(C(=O)O)c1)C(=O)c1cnc2ccccc2c1 [PF-05105679]
- Adverse effects in phase I clinical trials (TRPM8): several adverse effects, including feeling hot

From paper PMC7956626, “Phenylalanine-Derived β-Lactam TRPM8 Modulators. Configuration Effect on the Antagonist Activity” (International Journal of Molecular Sciences, 2021)
